Test results taken from patent publication US11672775B2, “Treprostinil prodrugs” (United Therapeutics Corporation, priority 2016, dated 2023).
pEC50: −log10 of the molar value. ≈ marks a conversion by molar mass, not a printed value. Like-named read-outs stand apart in the source and are kept apart here.

Key:
Sprague Dawley rats [1] = assay: Rat intraplantar injection model, thermal pain sensitivity (Example 10); assay type: in vivo, Sprague Dawley rat; conditions: 1 μg/mL or 100 μg/mL; 15 minutes post-administration
Procedure: (§1) Male Sprague Dawley rats (n=56) were allocated into 7 groups of 8 animals per group. […] Each group was compared to the phosphate buffer (50-mM phosphate buffer with 50-mM sodium chloride at pH=7.4) treated group, which served as the control (Group 1).
(§2) Animals were administered 0.1 mL of test material by subcutaneous injection into the paw pad (Intraplantar injection) at time zero. Then, the animals were subsequently evaluated for their response to mechanical (von Frey filaments) and thermal stimuli, 15 and 90 minutes post-injection. The von Frey test was conducted prior to the thermal test, which followed immediately within minutes for each animal. In addition, clinical observation scoring of the animal's reaction to injection was conducted.
The sensitivity of animals to a thermal pain stimulus was assessed immediately following the von Frey test. The time until withdrawal of the right-injected leg from a heat source was measured, and the lower (faster) the time of response represents a greater sensitivity to the stimulus. The test was performed 15 and 90 minutes post-test item injection.

IP1 receptor = molecular target: T1, IP1 receptor (Homo sapiens, UniProt P43119); assay: cAMP assay (TR-FRET or HTRF kit, forskolin), Examples 5 and 6; assay type: cell-based; conditions: read-out: EC50, IP receptor
T1 construct: expressed in transfected cells
Procedure: (§3) [table] Prodrug XV (for structure see FIG. 10) as well as treprostinil were tested for 3 G-protein-coupled receptors (GPCRs), namely DP1, EP2, and IP, using cyclic adenosine monophosphate (cAMP) assay. Cyclic AMP assay kits: Multiscreen™ TR-FRET cAMP 1.0 No Wash Assay Kit (Multispan, Inc., Cat #MSCM01-25) and HTRF cAMP HiRange Kit (CisBio, Cat #62AM6PEC). Instruments: FlexStation III (Molecular Devices). Cyclic AMP (cAMP) Assay: cAMP assays were performed according to the manufacturer's protocol using Multiscreen™ TR-FRET cAMP 1.0 No Wash Assay Kit or HTRF cAMP HiRange Kit. […] The reaction was terminated by sequentially adding sequentially adding trFluor™ Eu-labeled cAMP and trFluor™ 650-labeled anti-cAMP antibody or D2-labeled cAMP and cryptate-labeled anti-cAMP antibody in lysis buffer. The plate was then incubated at room temperature for 60 minutes before reading fluorescent emissions at 620 nm and 665 or 668 nm with excitation at 314 nm on FlexStation III (Molecular Devices). Cyclic AMP (cAMP) assays: Cyclic AMP assay results are shown as “Ratio 665/620×10,000” (ratio of fluorescence at 665 nm and 620 nm×10,000) or “Ratio 668/620×10,000” (ratio of fluorescence at 668 nm and 620 nm×10,000). Data in graphs were represented in Mean±SD. Dose-dependent responses were fitted with sigmoidal dose-response curves allowing variable slopes using GraphPad Prism versions 4, 5 or 6 (Graphpad Prism). Treprostinil Prodrug XIV (for structure see FIG. 10) as well as treprostinil were tested for 3 G-protein-coupled receptors (GPCRs), namely DP1, EP2, and IP, using cyclin adenosine monophosphate (cAMP) assay. Cyclic AMP assay kits: Multiscreen™ TR-FRET cAMP 1.0 No Wash Assay Kit (Multispan, Inc., Cat #MSCM01-25) and HTRF cAMP HiRange Kit (CisBio, Cat #62AM6PEC). Cyclic AMP (cAMP) Assay: cAMP assays were performed according to the manufacturer's protocol using Multiscreen™ TR-FRET cAMP 1.0 No Wash Assay Kit or HTRF cAMP HiRange Kit. […] The reaction was terminated by sequentially adding sequentially adding trFluor™ Eu-labeled cAMP and trFluor™ 650-labeled anti-cAMP antibody or D2-labeled cAMP and cryptate-labeled anti-cAMP antibody in lysis buffer. The plate was then incubated at room temperature for 60 minutes before reading fluorescent emissions at 620 nm and 665 or 668 nm with excitation at 314 nm on FlexStation III (Molecular Devices). Cyclic AMP (cAMP) assays: Cyclic AMP assay results are shown as “Ratio 665/620×10,000” (ratio of fluorescence at 665 nm and 620 nm×10,000) or “Ratio 668/620×10,000” (ratio of fluorescence at 668 nm and 620 nm×10,000). Data in graphs were represented in Mean±SD. Dose-dependent responses were fitted with sigmoidal dose-response curves allowing variable slopes using GraphPad Prism versions 4, 5 or 6 (Graphpad Prism).

DP1 receptor = molecular target: T2, DP1 receptor (Homo sapiens, UniProt Q13258); assay: as above; assay type: cell-based; conditions: read-out: EC50, DP receptor
T2 construct: expressed in transfected cells
T2 sequence (Q13258 1-359): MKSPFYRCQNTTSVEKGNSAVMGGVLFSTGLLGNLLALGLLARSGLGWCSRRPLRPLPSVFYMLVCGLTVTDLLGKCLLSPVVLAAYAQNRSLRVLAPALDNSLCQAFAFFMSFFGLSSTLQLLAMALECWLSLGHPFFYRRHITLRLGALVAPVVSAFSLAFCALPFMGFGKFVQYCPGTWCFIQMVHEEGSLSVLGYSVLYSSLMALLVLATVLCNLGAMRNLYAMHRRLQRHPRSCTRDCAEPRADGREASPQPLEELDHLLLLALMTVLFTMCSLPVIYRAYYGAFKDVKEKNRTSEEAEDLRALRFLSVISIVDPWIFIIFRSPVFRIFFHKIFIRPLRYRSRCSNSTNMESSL
Procedure: as §3

EP2 receptor = molecular target: T3, EP2 receptor (Homo sapiens, UniProt P43116); assay: as above; assay type: cell-based; conditions: read-out: EC50, EP receptor
T3 construct: expressed in transfected cells
Procedure: as §3

Sprague Dawley rats [2] = assay: Rat intraplantar injection model, von Frey test (Example 10); assay type: in vivo, Sprague Dawley rat; conditions: 1 μg/mL or 100 μg/mL; 15 and 90 minutes post-injection
Procedure: as §1, §2
Mechanical pain sensitivity was tested using the von Frey test, which measures the withdrawal force threshold of the animals. The lower the force applied represents a greater sensitivity to the stimulus. The von Frey test was performed 15 and 90 minutes post-test item injection.

[3] = In vitro metabolic stability of prodrugs in liver microsomes, across all species; assay type: in vitro ADME, human, Beagle dog, Sprague Dawley rat, Cynomolgus monkey
Procedure: In the second assay, four prodrugs (III, IV, VII and XIV) were tested in Cyno monkey liver microsomes.

[4] = Equilibrium solubility in vehicle; assay type: physicochemical; conditions: aqueous buffer, thermodynamic from solid, 20 mM sodium phosphate dibasic with 125 mM sodium chloride; for solubility thermodynamic at 23 h: T0 hours, read-out: Equilibrium solubility, T0 hours Concentration; for solubility thermodynamic at 24 h: T24 hours, read-out: Equilibrium solubility, T24 hours Concentration; for solubility thermodynamic at 72 h: T72 hours, read-out: Equilibrium solubility, T72 hours Concentration
Procedure: (§4) Each prodrug was dissolved in a vehicle containing 20 mM sodium phosphate dibasic with 125 mM sodium chloride. Prodrugs were prepared at saturation concentrations by weighing 15-30 mg of prodrug in to a 4 mL clear glass vial and dissolving in an appropriate volume of vehicle (0.5-1.0 mL) to achieve a nominal saturation concentration of 30 mg/mL. The solutions were mixed for 23 hours on a rotating mixer. […] The resultant supernatant solutions were isolated from undissolved prodrug by centrifugation at 15000 RPM for 15 min. Supernatants were transferred to clear glass vials and stored at ambient temperature. […] The resultant samples were assayed against treprostinil to determine prodrug concentration. At each testing interval (0, 24, 72 hours) the supernatant was assayed for prodrug concentration and purity by area %.

[5] = Stability in 200 mM potassium phosphate buffer (pH 7.4); assay type: physicochemical; conditions: 1 μM
Procedure: According to the earlier aqueous solution stability study, all prodrugs are stable in 20 mM Sodium Phosphate dibasic with 125 mM NaCl at saturation concentrations (3-30 mg/ml). Also, in the method development work, it was also observed that the most unstable prodrugs III, IV and XIV were stable in 200 mM potassium phosphate buffer (pH 7.4) at a low concentration of 1 μM.

[6] = Solution stability in vehicle (UPLC area %); assay type: physicochemical; conditions: for Solution stability, T0 Purity: ambient
Procedure: as §4

[7] = 20 mM sodium phosphate dibasic with 125 mM sodium chloride, T0

T3 sequence (P43116 whole entry): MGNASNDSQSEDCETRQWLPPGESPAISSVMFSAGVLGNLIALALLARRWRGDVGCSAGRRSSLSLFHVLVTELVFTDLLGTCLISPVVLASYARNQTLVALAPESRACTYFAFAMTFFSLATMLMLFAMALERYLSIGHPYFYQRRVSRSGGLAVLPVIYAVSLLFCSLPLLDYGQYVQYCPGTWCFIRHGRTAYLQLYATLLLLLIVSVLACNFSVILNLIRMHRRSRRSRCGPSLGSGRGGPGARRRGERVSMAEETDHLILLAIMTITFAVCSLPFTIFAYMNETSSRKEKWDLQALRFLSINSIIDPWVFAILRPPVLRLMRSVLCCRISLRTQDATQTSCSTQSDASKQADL
T1 sequence (P43119 whole entry): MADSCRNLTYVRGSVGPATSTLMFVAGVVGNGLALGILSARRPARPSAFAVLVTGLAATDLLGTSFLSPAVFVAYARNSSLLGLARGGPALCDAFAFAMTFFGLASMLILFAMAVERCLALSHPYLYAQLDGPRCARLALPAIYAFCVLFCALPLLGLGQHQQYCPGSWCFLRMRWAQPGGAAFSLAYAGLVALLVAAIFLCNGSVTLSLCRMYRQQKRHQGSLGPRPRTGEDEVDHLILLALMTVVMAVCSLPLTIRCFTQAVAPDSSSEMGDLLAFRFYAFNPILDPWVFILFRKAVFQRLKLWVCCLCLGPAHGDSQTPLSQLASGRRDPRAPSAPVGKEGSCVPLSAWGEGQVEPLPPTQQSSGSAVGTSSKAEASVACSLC

Structure (SMILES)	relative stability of the prodrugs in liver microsomes [3]	solubility thermodynamic at 23 h [4] [mg/mL]	solubility thermodynamic at 24 h [4] [mg/mL]	solubility thermodynamic at 72 h [4] [mg/mL]	stability in buffer [5]	Solution stability, T0 Purity [6, 7] [% Area]	Solution stability, T24 hours Purity ([6]; same vehicle) [% Area]	Solution stability, T72 hours Purity ([6]; same vehicle) [% Area]	other results
CCCCC[C@H](O)CC[C@@H]1[C@H]2Cc3cccc(OCC(=O)OCC(=O)O)c3C[C@H]2C[C@H]1O [Prodrug XV]	–	–	–	–	–	–	–	–	thermal paw withdrawal time vs phosphate buffer treated group (Sprague Dawley rats [1]): statistically significantly faster paw withdrawal time; pEC50 (IP1 receptor; Table 3 (Example 5)): 8.37; pEC50 (DP1 receptor; Table 3 (Example 5)): 8.16; pEC50 (EP2 receptor; Table 3 (Example 5)): 7.38; von Frey withdrawal force threshold vs phosphate buffer group (Sprague Dawley rats [2]): reduced withdrawal force threshold
CCCCC[C@@H](CC[C@@H]1[C@H]2Cc3cccc(OCC(=O)O)c3C[C@H]2C[C@H]1O)OC(=O)OC [Prodrug IV, side chain methyl carbonate of treprostinil]	least stable	12.5 (≈ 27.9 mM)	12.2 (≈ 27.2 mM)	12.9 (≈ 28.8 mM)	stable	99.19	99.02	99.15	–
CCCCC[C@H](O)CC[C@@H]1[C@H]2Cc3cccc(OCC(=O)NS(C)(=O)=O)c3C[C@H]2C[C@H]1O [Prodrug XIV, treprostinil methanesulfonamide]	least stable	29.5 (≈ 63.1 mM)	27.5 (≈ 58.8 mM)	26.6 (≈ 56.9 mM)	stable	94.20	94.25	94.56	solubility at 23 h ([4]; approximate, read-out: Solubility in the selected vehicle): ~30 mg/mL (≈ 64.2 mM); T0 Residual Treprostinil [6, 7]: 0.08 % Area; treprostinil formation in the vehicle ([6]; formed over 72 hours): 0.15%; T24 Residual Treprostinil ([6]; same vehicle, T24): 0.13 % Area; T72 Residual Treprostinil ([6]; same vehicle, T72): 0.23 % Area; pEC50 (IP1 receptor; Table 4 (Example 6)): 8.48; pEC50 (DP1 receptor; Table 4 (Example 6)): 7.41; pEC50 (EP2 receptor; Table 4 (Example 6)): 7.17
